Results: patent US10653717B2, “Antibiotic compositions” (priority 2016, dated 2020)
Where two headings read alike, the source gives them in different places.

Columns and labels:
[1] = test system: AB-1: Acinetobacter baumannii H#
Description: (§1) There are five most difficult-to-treat MDR Gram-negative pathogen species in the clinic, which are also typical GSH-positive bacteria: Klebsiella pneumonia, Acinetobacter baumannii, Pseudomonas aeruginosa, Enterobacter cloacae and Escherichia coli. Two strains of each species were isolated, overnight cultures were diluted 1:1000 times in LB medium, and treated with Ag^+ with a serial concentration of ebselen in combination for 16 h. […] Among these five species, A. baumannii and E. cloacae are very readily formed drug-resistant strains, which are needed to be treated by or the fourth-generation cephalosporin in the clinic, including imipenem, cefepime, and cefotaxime, etc.
(§2) Ten clinical isolated MDR Gram-negative (GSH-positive) strains were grown until an OD600 nm of 0.4 and were diluted 1:100 into 100 μl of LB medium in 96 micro-well plates. Serial dilutions of 100 μl ebselen and AgNO3 were added to the individual wells. […] The culture treated with 0.8% (v/v) DMSO was used as a control.

[2] = test system: AB-2: A. baumannii 0361#
Description: as §1, §2

[3] = test system: ECL-1: Enterobacter cloacae 0431#
Description: as §1, §2

[4] = test system: ECL-2: E. cloacae 2301#
Description: as §1, §2

[5] = test system: ECO-3: E. coli ZY-1
Description: as §1, §2

[6] = test system: ECO-4: MG1655 (ATCC 700926)
Description: as §1, §2

[7] = test system: PA-1: Pseudomonas aeruginosa 1298#
Description: as §1, §2

[8] = test system: PA-2: P. aeruginosa 0009#
Description: as §1, §2

[9] = test system: E. coli DHB4 gor^−grxA^−B^−C^−; assay: microbe, parasite or virus in culture; format: cell-based, Escherichia coli; conditions: 24 h
Description: (§3) Since Trx and GSH/Grx are major thiol-dependent systems, investigated were the effects of Ag^+ with ebselen in combination on Trx or GSH system-deficient E. coli redox mutants.
(§4) Serial dilutions of ebselen and AgNO3 were added to the individual wells. The minimum inhibitory concentration (MIC) was determined after 24 h culture at 37° C.

[10] = test system: E. coli DHB4 gor^−; assay: microbe, parasite or virus in culture; format: cell-based, Escherichia coli; conditions: 24 h
Description: as §3, §4

[11] = test system: E. coli DHB4 grxA^−trxA^−; assay: microbe, parasite or virus in culture; format: cell-based, Escherichia coli; conditions: 24 h
Description: as §3, §4

[12] = test system: E. coli DHB4 gshA^−; assay: microbe, parasite or virus in culture; format: cell-based, Escherichia coli; conditions: gshA^−, 24 h
Description: as §3, §4

[13] = test system: E. coli DHB4 trxA^−B^−C^−; assay: microbe, parasite or virus in culture; format: cell-based, Escherichia coli; conditions: 24 h
Description: as §3, §4

[14] = test system: E. coli DHB4 trxA^−gshA^−; assay: microbe, parasite or virus in culture; format: cell-based, Escherichia coli; conditions: trxA^−gshA^−, 24 h
Description: as §3, §4

[15] = test system: E. coli DHB4 trxA^−; assay: microbe, parasite or virus in culture; format: cell-based, Escherichia coli; conditions: 24 h
Description: as §3, §4

[16] = test system: E. coli DHB4 trxB^−; assay: microbe, parasite or virus in culture; format: cell-based, Escherichia coli; conditions: 24 h
Description: as §3, §4

[17] = test system: E. coli DHB4 trxC^−; assay: microbe, parasite or virus in culture; format: cell-based, Escherichia coli; conditions: trxC^−, 24 h
Description: as §3, §4

Measured: MIC of silver in the presence of ebselen

O=[N+]([O-])[O-].[Ag+] [silver, silver nitrate]
10 µM: [1]; Ebselen 4 μM | [4]; Ebselen 4 μM | [5]; Ebselen 4 μM | [6]; Ebselen 2 μM | [9]; Ebselen 1 μM | [10]; Ebselen 1 μM | [11]; Ebselen 1 μM | [13]; Ebselen 1 μM | [15]; Ebselen 1 μM | [16]; Ebselen 1 μM | [17]; Ebselen 1 μM
2.5 µM: [9]; Ebselen 2 μM | [11]; Ebselen 2 μM | [12]; Ebselen 2 μM | [13]; Ebselen 2 μM | [14]; Ebselen 2 μM | [15]; Ebselen 2 μM | [16]; Ebselen 2 μM
80 µM: [1]; Ebselen 0 μM | [1]; Ebselen 1 μM | [2]; Ebselen 0 μM | [2]; Ebselen 1 μM | [3]; Ebselen 0 μM | [4]; Ebselen 0 μM | [7]; Ebselen 0 μM | [7]; Ebselen 1 μM | [8]; Ebselen 0 μM | [8]; Ebselen 1 μM
40 µM: [1]; Ebselen 2 μM | [2]; Ebselen 2 μM | [3]; Ebselen 1 μM | [4]; Ebselen 1 μM | [4]; Ebselen 2 μM | [5]; Ebselen 0 μM | [5]; Ebselen 1 μM | [6]; Ebselen 0 μM | [8]; Ebselen 2 μM | [10]; Ebselen 0 μM | [13]; Ebselen 0 μM | [15]; Ebselen 0 μM | [16]; Ebselen 0 μM | [17]; Ebselen 0 μM
5 µM: [6]; Ebselen 4 μM | [10]; Ebselen 2 μM | [12]; Ebselen 1 μM | [14]; Ebselen 1 μM | [17]; Ebselen 2 μM
1.25 µM: [10]; Ebselen 4 μM | [13]; Ebselen 4 μM | [15]; Ebselen 4 μM | [17]; Ebselen 4 μM
20 µM: [2]; Ebselen 4 μM | [3]; Ebselen 2 μM | [3]; Ebselen 4 μM | [5]; Ebselen 2 μM | [6]; Ebselen 1 μM | [7]; Ebselen 2 μM | [7]; Ebselen 4 μM | [8]; Ebselen 4 μM | [9]; Ebselen 0 μM | [11]; Ebselen 0 μM | [12]; Ebselen 0 μM | [14]; Ebselen 0 μM
0.625 µM: [9]; Ebselen 4 μM | [11]; Ebselen 4 μM | [12]; Ebselen 4 μM | [14]; Ebselen 4 μM | [16]; Ebselen 4 μM
